Data taken from patent publication US20250025411A1, “READILY SOLUBLE AND THERMOSTABLE GLUCAGON FORMULATIONS AND DELIVERY FOR MINI-DOSING AND CLOSED -LOOP PROPHYLACTIC TREATMENT OF HYPOGLYCEMIA” (Massachusetts Institute of Technology, priority 2023, published 2025).

Key:
[1] = Dissolution kinetics of solid glucagon tablets; assay type: physicochemical; details: pH 7.4 PBS, 37° C.
Excerpt: Many of the top hits in the excipient screening (e.g., benzoic acid and sodium carbonate) promote glucagon dissolution by altering solution pH. Unlike many other successful excipients, the zwitterionic compound MSB can enhance glucagon dissolution in PBS without altering solution pH.
The excipients were cryo-milled and sieved to a particle size of 63-120 μm (230-120 mesh) before being combined with lyophilized glucagon powder. Solid glucagon formulations were manufactured by tablet compaction of the drug-excipient mixture (1 mm diameter die, 400 N compaction force) using an RD10A Natoli Tablet press. Magnesium stearate, a common lubricant used in tableting, was excluded from this process. The solid formulations were stored at 4° C. until use.
The dissolution kinetics of the solid formulations were assessed by incubating the solid glucagon formulations in 2 mL of pH 7.4 PBS, stored at 37° C. on an orbital shaker. At predetermined timepoints, 200 μL of supernatant was removed for HPLC analysis and an equivalent volume of release medium was replaced. The samples were diluted with equal parts of acetonitrile and analyzed using RP-HPLC.

[2] = High throughput screening of water-soluble solid excipients for glucagon dissolution; assay type: physicochemical; details: for Fold change vs. PBS Avg.: 30-minute incubation in pH 7.4 PBS containing 1 mg/mL excipient; for Fold change vs. PBS Avg. / Glucagon concentration Avg.: 37° C.; for Glucagon concentration Avg.: solubilized glucagon after 30-minute incubation of lyophilized glucagon in pH 7.4 PBS containing 1 mg/mL excipient

glucagon [unformulated glucagon]
dissolution of solid glucagon formulation in neutral pH buffer [1]: remained largely insoluble

NCCC(=O)O [Beta-Alanine]
Fold change vs. PBS Avg. [2]: 1.34 fold | Glucagon concentration Avg. [2]: 0.29 mg/mL

CC(O)COC[C@H]1O[C@@H]2O[C@H]3[C@H](O)[C@@H](O)[C@@H](O[C@H]4[C@H](O)[C@@H](O)[C@@H](O[C@H]5[C@H](O)[C@@H](O)[C@@H](O[C@H]6[C@H](O)[C@@H](O)[C@@H](O[C@H]7[C@H](O)[C@@H](O)[C@@H](O[C@H]8[C@H](O)[C@@H](O)[C@@H](O[C@H]1[C@H](O)[C@H]2O)O[C@@H]8COCC(C)O)O[C@@H]7COCC(C)O)O[C@@H]6COCC(C)O)O[C@@H]5COCC(C)O)O[C@@H]4COCC(C)O)O[C@@H]3COCC(C)O (stereo partly drawn) [Hydroxypropyl Betadex]
Fold change vs. PBS Avg. [2]: 1.74 fold | Glucagon concentration Avg. [2]: 0.37 mg/mL

N[C@@H](CS)C(=O)O [L-Cysteine]
Fold change vs. PBS Avg. [2]: 0.60 fold | Glucagon concentration Avg. [2]: 0.13 mg/mL

O=C1NS(=O)(=O)c2ccccc21.[Na] [Saccharin Sodium]
Fold change vs. PBS Avg. [2]: 1.21 fold | Glucagon concentration Avg. [2]: 0.26 mg/mL

O=C[C@H](O)[C@@H](O)[C@H](O)[C@H](O)CO [D-glucose]
Fold change vs. PBS Avg. [2]: 1.08 fold | Glucagon concentration Avg. [2]: 0.23 mg/mL

NCCS(=O)(=O)O [Taurine]
Fold change vs. PBS Avg. [2]: 1.11 fold | Glucagon concentration Avg. [2]: 0.24 mg/mL

O=C(O)/C=C\C(=O)O [Maleic Acid]
Fold change vs. PBS Avg. [2]: 0.34 fold | Glucagon concentration Avg. [2]: 0.07 mg/mL

O=S(=O)(O)CCCN1CCOCC1 [MOPS]
Fold change vs. PBS Avg. [2]: 0.80 fold | Glucagon concentration Avg. [2]: 0.17 mg/mL

O=S(=O)(O)CCCN1CCN(CCO)CC1 [EPPS]
Fold change vs. PBS Avg. [2]: 0.79 fold | Glucagon concentration Avg. [2]: 0.17 mg/mL

O=S(=O)([O-])CCC[P+](c1ccccc1)(c1ccccc1)c1ccccc1 [3-(Triphenylphosphonio)propane-1-sulfonate]
Fold change vs. PBS Avg. [2]: 1.21 fold | Glucagon concentration Avg. [2]: 0.26 mg/mL

O=S(=O)(O)CCN1CCN(CCS(=O)(=O)O)CC1 [Piperazine-N,N′-bis(2-ethanesulfonic acid)]
enhancement of glucagon dissolution (statistical significance compared to no excipient) ([2]; 30-minute incubation in pH 7.4 PBS at 37° C.): successfully enhanced the dissolution of glucagon | Fold change vs. PBS Avg. [2]: 3.70 fold | Glucagon concentration Avg. [2]: 0.80 mg/mL

NC(=O)CN(CC(=O)O)CC(=O)O [ADA]
Fold change vs. PBS Avg. [2]: 0.26 fold | Glucagon concentration Avg. [2]: 0.06 mg/mL

OCCN(CCO)C(CO)(CO)CO [BIS-TRIS]
Fold change vs. PBS Avg. [2]: 1.67 fold | Glucagon concentration Avg. [2]: 0.36 mg/mL

O=S([O-])S(=O)[O-].[Na+].[Na+] [Sodium Dithionite]
Fold change vs. PBS Avg. [2]: 2.25 fold | Glucagon concentration Avg. [2]: 0.49 mg/mL

CC[C@H](C)[C@H](N)C(=O)O [Isoleucine]
Fold change vs. PBS Avg. [2]: 1.88 fold | Glucagon concentration Avg. [2]: 0.41 mg/mL

Betadex Sulfobutyl Ether Sodium
Fold change vs. PBS Avg. [2]: 1.56 fold | Glucagon concentration Avg. [2]: 0.34 mg/mL

CC(C)(S)[C@@H](N)C(=O)O [D-Penicillamine]
Fold change vs. PBS Avg. [2]: 1.42 fold | Glucagon concentration Avg. [2]: 0.31 mg/mL

O=C([O-])c1ccccc1O.[Na+] [Sodium Salicylate]
Fold change vs. PBS Avg. [2]: 1.84 fold | Glucagon concentration Avg. [2]: 0.40 mg/mL

O=S([O-])S(=O)(=O)[O-].[K+].[K+] [Potassium Metabisulfite]
Fold change vs. PBS Avg. [2]: 2.13 fold | Glucagon concentration Avg. [2]: 0.46 mg/mL

Nc1nc2ncc(CNc3ccc(C(=O)N[C@@H](CCC(=O)O)C(=O)O)cc3)nc2c(=O)[nH]1 [Folic acid]
Fold change vs. PBS Avg. [2]: 1.98 fold | Glucagon concentration Avg. [2]: 0.43 mg/mL
